Measurements taken from patent publication US20250236608A1, “EGFR INHIBITORS” (Blueprint Medicines Corporation, priority 2022, published 2025).

Legend:
EGFR (d746-750) = EGFR (d746-750) (Homo sapiens (Human), UniProt P00533, DEL746-750); experiment: Biochemical EGFR inhibition assay, EGFR (d746-750); conditions: Caliper mobility shift; 1.0 mM ATP or ATP Km; read-out: Enz EGFR_Exon19-del746-750 IC50
[1] = biological target: pEGFR (Tyr1068) in PC-9 cells (Ex19Del) (Homo sapiens (Human), UniProt P00533, DEL746-750); experiment: PC-9 pEGFR AlphaLISA assay; type: cell-based; conditions: 4 hours incubation, p-EGFR (Tyr1068) AlphaLISA, read-out: Ext pEGFR_PC-9 Ex19Del IC50
Outline: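 Compounds are added in ten 4-fold dilutions to adherent cells grown in serum-containing (10% FBS) phenol-free DMEM and left for 4 hours at 37° C. Phosphorylated receptor in lysates is quantified by bead-based AlphaLISA. IC50 values derive from inhibition plotted against log dose.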

EGFR L858R = EGFR L858R (Homo sapiens (Human), UniProt P00533, L858R); experiment: Biochemical EGFR inhibition assay, EGFR L858R; conditions: Caliper mobility shift; 1.0 mM ATP or ATP Km; read-out: Enz EGFR_L858R IC50
Chain of EGFR L858R (P00533 25-1210 L858R): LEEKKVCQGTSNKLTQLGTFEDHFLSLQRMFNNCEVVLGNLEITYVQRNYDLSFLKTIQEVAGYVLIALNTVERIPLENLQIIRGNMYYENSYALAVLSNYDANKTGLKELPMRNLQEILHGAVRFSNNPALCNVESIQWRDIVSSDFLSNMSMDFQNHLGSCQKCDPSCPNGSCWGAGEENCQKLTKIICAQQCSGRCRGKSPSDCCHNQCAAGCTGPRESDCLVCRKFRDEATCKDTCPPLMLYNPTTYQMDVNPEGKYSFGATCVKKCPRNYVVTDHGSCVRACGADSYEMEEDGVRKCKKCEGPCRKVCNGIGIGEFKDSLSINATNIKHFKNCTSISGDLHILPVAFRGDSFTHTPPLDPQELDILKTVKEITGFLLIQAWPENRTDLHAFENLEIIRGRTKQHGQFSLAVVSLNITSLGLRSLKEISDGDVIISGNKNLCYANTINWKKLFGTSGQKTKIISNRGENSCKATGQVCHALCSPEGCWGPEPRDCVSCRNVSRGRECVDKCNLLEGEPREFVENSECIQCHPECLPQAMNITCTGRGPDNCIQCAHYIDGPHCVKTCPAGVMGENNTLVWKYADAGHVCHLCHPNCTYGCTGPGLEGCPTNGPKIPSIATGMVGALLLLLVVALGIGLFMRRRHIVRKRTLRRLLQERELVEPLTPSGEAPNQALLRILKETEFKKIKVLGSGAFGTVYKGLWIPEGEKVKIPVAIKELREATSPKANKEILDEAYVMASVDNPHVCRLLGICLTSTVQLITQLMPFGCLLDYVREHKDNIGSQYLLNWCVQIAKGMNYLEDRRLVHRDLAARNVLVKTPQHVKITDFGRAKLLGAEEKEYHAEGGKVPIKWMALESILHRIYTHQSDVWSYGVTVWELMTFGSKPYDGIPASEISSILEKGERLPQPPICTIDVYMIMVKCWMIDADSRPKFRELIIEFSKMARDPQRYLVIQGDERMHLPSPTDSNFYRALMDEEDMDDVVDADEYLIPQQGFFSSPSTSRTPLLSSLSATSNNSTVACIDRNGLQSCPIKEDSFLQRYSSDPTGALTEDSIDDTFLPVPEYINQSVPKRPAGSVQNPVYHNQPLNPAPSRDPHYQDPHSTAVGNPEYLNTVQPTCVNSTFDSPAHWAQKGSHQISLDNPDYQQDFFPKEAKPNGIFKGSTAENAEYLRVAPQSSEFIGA

Chain of EGFR (d746-750) (P00533 other isoform, or with tags, fused parts or gaps del 1-694/del 746-750 limits assumed): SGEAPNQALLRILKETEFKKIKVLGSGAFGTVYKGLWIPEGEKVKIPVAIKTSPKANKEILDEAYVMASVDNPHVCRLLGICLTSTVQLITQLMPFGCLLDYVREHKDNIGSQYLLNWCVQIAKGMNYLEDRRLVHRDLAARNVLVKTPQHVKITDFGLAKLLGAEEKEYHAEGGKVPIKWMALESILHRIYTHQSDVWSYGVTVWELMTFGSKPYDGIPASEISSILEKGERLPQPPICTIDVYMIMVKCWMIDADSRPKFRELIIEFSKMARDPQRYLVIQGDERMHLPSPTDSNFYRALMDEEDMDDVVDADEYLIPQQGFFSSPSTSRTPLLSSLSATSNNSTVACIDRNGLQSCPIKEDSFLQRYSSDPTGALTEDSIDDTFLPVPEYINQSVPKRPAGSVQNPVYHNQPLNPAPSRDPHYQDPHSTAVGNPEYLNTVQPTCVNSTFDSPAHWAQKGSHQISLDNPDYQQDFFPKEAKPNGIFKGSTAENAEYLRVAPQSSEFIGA
Chain of pEGFR (Tyr1068) in PC-9 cells (Ex19Del) (P00533 other isoform, or with tags, fused parts or gaps del 746-750): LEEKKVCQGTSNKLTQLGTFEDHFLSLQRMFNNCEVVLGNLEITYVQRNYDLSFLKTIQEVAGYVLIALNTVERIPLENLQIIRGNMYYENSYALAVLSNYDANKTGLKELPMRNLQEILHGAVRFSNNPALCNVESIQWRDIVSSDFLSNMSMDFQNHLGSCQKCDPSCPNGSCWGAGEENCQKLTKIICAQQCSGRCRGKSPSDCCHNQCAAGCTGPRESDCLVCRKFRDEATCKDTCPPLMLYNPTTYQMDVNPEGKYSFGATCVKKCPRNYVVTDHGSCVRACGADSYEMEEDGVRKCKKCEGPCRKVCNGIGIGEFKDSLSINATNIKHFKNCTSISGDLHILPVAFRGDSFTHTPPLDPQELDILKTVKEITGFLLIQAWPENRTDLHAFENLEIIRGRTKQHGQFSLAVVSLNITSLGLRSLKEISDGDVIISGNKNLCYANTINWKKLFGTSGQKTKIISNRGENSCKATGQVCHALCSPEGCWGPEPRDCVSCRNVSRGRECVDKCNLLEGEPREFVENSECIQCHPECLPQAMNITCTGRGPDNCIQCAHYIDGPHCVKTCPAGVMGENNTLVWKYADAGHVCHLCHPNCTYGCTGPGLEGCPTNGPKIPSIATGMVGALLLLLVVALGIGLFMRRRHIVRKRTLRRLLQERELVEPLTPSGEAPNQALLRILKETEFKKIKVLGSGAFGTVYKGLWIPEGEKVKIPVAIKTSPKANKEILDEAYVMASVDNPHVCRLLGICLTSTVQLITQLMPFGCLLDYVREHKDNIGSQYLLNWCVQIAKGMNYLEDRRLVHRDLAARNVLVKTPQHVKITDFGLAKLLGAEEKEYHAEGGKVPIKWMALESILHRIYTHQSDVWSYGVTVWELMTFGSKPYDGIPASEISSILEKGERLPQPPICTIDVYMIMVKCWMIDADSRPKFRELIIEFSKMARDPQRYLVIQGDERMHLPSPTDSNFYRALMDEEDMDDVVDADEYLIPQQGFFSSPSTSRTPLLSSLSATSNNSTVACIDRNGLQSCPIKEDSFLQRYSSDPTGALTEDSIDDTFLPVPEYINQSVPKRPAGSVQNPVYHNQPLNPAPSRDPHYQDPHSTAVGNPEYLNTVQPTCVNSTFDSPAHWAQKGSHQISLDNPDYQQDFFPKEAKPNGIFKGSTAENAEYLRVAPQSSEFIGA

Row | SMILES | IC50 (EGFR (d746-750)) | IC50 [1] | IC50 (EGFR L858R)
1 | COc1cc2ncnc(-c3cn(C)nc3-c3ccccc3)c2nc1OC(C)c1cccnc1F (stereo not drawn) [Example 30, 6-(1-(2-fluoropyridin-3-yl)ethoxy)-7-methoxy-4-(1-methyl-3-phenyl-1H-pyrazol-4-yl)pyrido[3,2-d]pyrimidine] | 1 nM | 1.1 nM | 1.4 nM
2 | COc1cc2ncnc(-c3cn(C)nc3-c3ccc(F)cc3)c2nc1NC(=O)C12CC(N(C)C)(C1)C2 [Example 402, 3-(dimethylamino)-N-(4-(3-(4-fluorophenyl)-1-methyl-1H-pyrazol-4-yl)-7-methoxypyrido[3,2-d]pyrimidin-6-yl)bicyclo[1.1.1]pentane-1-carboxamide] | 1.3 nM | 3.8 nM | 3.1 nM
3 | COc1cc2ncnc(-c3cn(C)nc3-c3ccccc3F)c2nc1NC(=O)C12CC(N(C)C)(C1)C2 [Example 403, 3-(dimethylamino)-N-(4-(3-(2-fluorophenyl)-1-methyl-1H-pyrazol-4-yl)-7-methoxypyrido[3,2-d]pyrimidin-6-yl)bicyclo[1.1.1]pentane-1-carboxamide] | 1.2 nM | 5 nM | 4.2 nM
4 | COc1cc2ncnc(-c3cn(C)nc3-c3ccccc3)c2nc1O[C@H](C)c1nccs1 [Example 32, (R)-2-(1-((7-methoxy-4-(1-methyl-3-phenyl-1H-pyrazol-4-yl)pyrido[3,2-d]pyrimidin-6-yl)oxy)ethyl)thiazole] | 0.8 nM | 1.2 nM | 1.1 nM
5 | CN1CCC(n2cc(-c3ccc4c(-c5c[nH]nc5-c5ccccc5)ncnc4c3)cn2)CC1 [Example 442, 7-(1-(1-methylpiperidin-4-yl)-1H-pyrazol-4-yl)-4-(3-phenyl-1H-pyrazol-4-yl)quinazoline] | 1.1 nM | 0.4 nM | 1.4 nM
6 | COc1cc2ncnc(-c3cn(C)nc3-c3ccccc3)c2nc1O[C@@H](C)c1nnnn1C [Example 45, (S)-7-methoxy-6-(1-(1-methyl-1H-tetrazol-5-yl)ethoxy)-4-(1-methyl-3-phenyl-1H-pyrazol-4-yl)pyrido[3,2-d]pyrimidine] | 3.6 nM | 14.3 nM | 9.4 nM
7 | COc1cc2ncnc(-c3cn(C)nc3-c3ccccc3)c2nc1NC(=O)[C@@H]1C[C@H]2C[C@H]2N1C [Example 418, (1R,3S,5R)—N-(7-methoxy-4-(1-methyl-3-phenyl-1H-pyrazol-4-yl)pyrido[3,2-d]pyrimidin-6-yl)-2-methyl-2-azabicyclo[3.1.0]hexane-3-carboxamide] | 0.6 nM | 1.8 nM | 1.8 nM
8 | COc1cc2ncnc(-c3cn(CC(F)(F)F)nc3-c3ccccc3)c2cc1OC(=O)N1CCN(C)C[C@@H]1C [Example 60, 7-methoxy-4-(3-phenyl-1-(2,2,2-trifluoroethyl)-1H-pyrazol-4-yl)quinazolin-6-yl(S)-2,4-dimethylpiperazine-1-carboxylate] | 3.6 nM | 3.6 nM | 5.1 nM
9 | COc1cc2ncnc(-c3cn(C4CC4)nc3-c3ccccc3)c2nc1NC(=O)C1(C(F)(F)F)CC1 [Example 367, N-(4-(1-cyclopropyl-3-phenyl-1H-pyrazol-4-yl)-7-methoxypyrido[3,2-d]pyrimidin-6-yl)-1-(trifluoromethyl)cyclopropane-1-carboxamide] | 0.9 nM | 0.5 nM | 1.6 nM
10 | COc1cc2ncnc(-c3cn(CC(F)F)nc3-c3ccccc3)c2cc1NC(=O)[C@@]12COC[C@@H]1C2 [Example 276, (1R,5R)—N-(4-(1-(2,2-difluoroethyl)-3-phenyl-1H-pyrazol-4-yl)-7-methoxyquinazolin-6-yl)-3-oxabicyclo[3.1.0]hexane-1-carboxamide] | 1.6 nM | 1.3 nM | 2 nM
11 | COc1cc2ncnc(-c3cn(CC(F)F)nc3-c3ccccc3)c2cc1NC(=O)[C@]12COC[C@H]1C2 [Example 275, (1S,5S)—N-(4-(1-(2,2-difluoroethyl)-3-phenyl-1H-pyrazol-4-yl)-7-methoxyquinazolin-6-yl)-3-oxabicyclo[3.1.0]hexane-1-carboxamide] | 1.3 nM | 1.9 nM | 1.9 nM
12 | COc1cc2ncnc(-c3cn(C)nc3-c3ccc(F)cc3F)c2nc1NC(=O)C12CC(C1)C2 [Example 421, N-(4-(3-(2,4-difluorophenyl)-1-methyl-1H-pyrazol-4-yl)-7-methoxypyrido[3,2-d]pyrimidin-6-yl)bicyclo[1.1.1]pentane-1-carboxamide] | 1.8 nM | 1.9 nM | 1.3 nM
13 | COc1cc2ncnc(-c3cn(CC(F)F)nc3-c3ccc(F)cc3)c2cc1C1(O)CC1 [Example 489] | 3.9 nM | 13.8 nM | 6.9 nM
14 | COc1cc2ncnc(-c3cn(C)nc3-c3ccccc3)c2nc1O[C@H](C)c1cccnc1F [Example 48, (R)-6-(1-(2-fluoropyridin-3-yl)ethoxy)-7-methoxy-4-(1-methyl-3-phenyl-1H-pyrazol-4-yl)pyrido[3,2-d]pyrimidine] | 1.4 nM | 1.1 nM | 1.8 nM

Other lines, results leading:

Row | IC50 (EGFR (d746-750)) | IC50 [1] | IC50 (EGFR L858R) | SMILES
15 | 0.7 nM | 2.9 nM | 1.5 nM | COc1cc2ncnc(-c3cn(C)nc3-c3ccccc3)c2cc1NC(=O)c1cncnc1 [Example 193, N-(7-methoxy-4-(1-methyl-3-phenyl-1H-pyrazol-4-yl)quinazolin-6-yl)pyrimidine-5-carboxamide]
16 | 2.8 nM | 7.1 nM | 3.2 nM | COc1cc2ncnc(-c3cn(C)nc3-c3ccccc3)c2cc1-c1cccc(C(=O)NC2CC2)c1 [Example 142, N-cyclopropyl-3-(7-methoxy-4-(1-methyl-3-phenyl-1H-pyrazol-4-yl)quinazolin-6-yl)benzamide]
17 | 1 nM | 1.2 nM | 1.8 nM | COc1cc2ncnc(-c3cn(C)nc3-c3ccc(F)cc3)c2cc1NC(=O)c1scnc1C [Example 304, N-(4-(3-(4-fluorophenyl)-1-methyl-1H-pyrazol-4-yl)-7-methoxyquinazolin-6-yl)-4-methylthiazole-5-carboxamide]
18 | 0.6 nM | 0.6 nM | 0.9 nM | COc1cc2ncnc(-c3cn(CC(F)F)nc3-c3ccccc3)c2cc1NC(=O)c1cncs1 [Example 213, N-(4-(1-(2,2-difluoroethyl)-3-phenyl-1H-pyrazol-4-yl)-7-methoxyquinazolin-6-yl)thiazole-5-carboxamide]
19 | 1.1 nM | 2.4 nM | 1.8 nM | COc1cc2ncnc(-c3cn(C)nc3-c3ccccc3)c2cc1O[C@H]1CCOC[C@@H]1F [Example 17, 6-(((3S,4S)-3-fluorotetrahydro-2H-pyran-4-yl)oxy)-7-methoxy-4-(1-methyl-3-phenyl-1H-pyrazol-4-yl)quinazoline]
20 | 0.7 nM | 1 nM | 1.2 nM | CCC(=O)Nc1cc2c(-c3cn(C)nc3-c3ccccc3)ncnc2cc1-n1ccc(C)n1 [Example 450, N-(7-(3-methyl-1H-pyrazol-1-yl)-4-(1-methyl-3-phenyl-1H-pyrazol-4-yl)quinazolin-6-yl)propionamide]
